This note sets out measurements from patent publication US20250019385A1, “SPIROCYCLIC ANNULATED 2-AMINO-3-CYANO THIOPHENES AND DERIVATIVES FOR THE TREATMENT OF CANCER” (Boehringer Ingelheim International GmbH, priority 2023, published 2025).

pIC50: −log10 of the molar value.

Series [1] can be described thus: Plasma protein binding assay (PPB), equilibrium dialysis. The format is in vitro ADME. The following applies: bovine, 10% FCS in PBS, read-out: PPB 10% FCS (% fu). Here is the method: Binding of test compounds to plasma was determined using equilibrium dialysis (ED) and quantitative mass spectrometry interfaced with liquid chromatography (LC-MS). In brief, ED was performed with dialysis devices consisting of two chambers separated by a semipermeable membrane with a molecular weight cut-off of 5-10 kg/mol. One chamber was filled with 10% FCS in PBS containing 1-10 μmol/L test compound and the other chamber was filled with phosphate-buffer saline (PBS) with or without dextran. The dialysis chamber was incubated for 3-5 hours at 37° C. After incubation, protein was precipitated from aliquots of each chamber and the concentration of test compound in the supernatant of the plasma-containing compartment (cserum) and of the buffer-containing compartment (cbuffer) was determined by LC-MS. The fraction of unbound test compound (not bound to plasma) (f) was calculated according to the following equation: […]
A general note: Equilibrium dialysis compares concentrations on both sides of a semipermeable membrane.

A further series deals with AsPC-1 cells. The series can be described thus: AsPC-1 CTG proliferation assay (120 h) (pancreatic cancer, G12D). In kind it is cell-based. The following applies: Homo sapiens, ASPC1. As to the method:
(§1) AsPC-1 cells (ATCC CRL-1682) are dispensed into black 384-well plates, flat and clear bottom (Greiner, PNr. 781091) at a density of 500 cells per well in 60 μl RPMI ATCC-Formulation (PAN P04-18047)+10% FCS (fetal calf serum, HyClone, SH30084.03). Cells are incubated overnight at 37° C. in a humidified tissue culture incubator at 5% CO2. Compounds (10 mM stock in DMSO) are added at logarithmic dose series using the ECHO acoustic liquid handler system (Beckman Coulter), normalizing for added DMSO and including DMSO controls. All compound treatments are performed in technical duplicates. For the TO time point measurement, untreated cells are analyzed at the time of compound addition. Plates are incubated for 120 h, and cell viability is measured using CellTiter-Glo luminescent cell viability reagent (Promega product code G7570). Viability (stated as percent of control) is defined as relative luminescence units RLU of each well divided by the RLU of cells in DMSO controls. IC50 values are determined from viability measurements by non-linear regression using a four-parameter model.
(§2) IC50 values of representative compounds according to the invention measured with these assays in the indicated cell lines are presented in Table 46.

Series [2] addresses KRAS (G12C)::SOS1 protein-protein interaction (Homo sapiens (Human), UniProt P01116, C118S/C51S/C80L/G12C). The series can be described thus: KRAS::SOS1 AlphaScreen binding assay (KRAS G12C). The following applies: GDP. An excerpt:
This assay can be used to examine the potency with which compounds according to the invention binding to (mutated) KRAS inhibit the protein-protein interaction between SOS1 and (mutated) KRAS e.g. KRAS G12C, KRAS G12D. […] Low IC50 values in this assay setting are indicative of strong inhibition of protein-protein interaction between SOS1 and KRAS:
These assays measure the inhibitory effect of compounds on KRAS mutant protein-protein interactions using the Alpha Screen technology by Perkin Elmer.
The following (mutant) enzyme forms of KRAS and interacting proteins are used in these assays at the given concentrations:
KRAS (G12C) 1-169, N-terminal 6His-tag for purification, cleaved off, C-terminal avi-tag, biotinylated, mutations: C51S, C80L, C118S (in house); final assay concentration 7.5 nM and SOS1 564-1049, N-terminal 229 GST-tag, TEV cleavage site (Viva Biotech Ltd); final assay concentration 5 nM;
Test compounds dissolved in DMSO are dispensed onto assay plates (Proxiplate 384 PLUS, white, PerkinElmer; 6008289) using an Access Labcyte Workstation with the Labcyte Echo 55x. For the chosen highest assay concentration of 100 μM, 150 nL of compound solution are transferred from a 10 mM DMSO compound stock solution. A series of eleven fivefold dilutions per compound are transferred to the assay plate, compound dilutions are tested in duplicates. DMSO are added as backfill to a total volume of 150 nL.
The assays run on a fully automated robotic system in a darkened room below 100 Lux. To 150 nl of compound dilution 10 μl of a mix including KRAS mutant protein, SOS1 (final assay concentrations see above) and GDP nucleotide (Sigma G7127; final assay concentration 10 μM) in assay buffer (1×PBS, 0.1% BSA, 0.05% Tween 20) are added into columns 1-24.
After 30 minutes incubation time 5 μl of Alpha Screen bead mix in assay buffer are added into columns 1-23. Bead mix consists of AlphaLISA Glutathione Acceptor Beads (PerkinElmer, Cat No AL109) and AlphaScreen Streptavidin Donor Beads (PerkinElmer Cat No 6760002) in assay buffer at a final assay concentration of 10 μg/mL each.
Plates are kept at room temperature in a darkened incubator. After an additional 60 minutes incubation time the signal is measured in a PerkinElmer Envision HTS Multilabel Reader using the AlphaScreen specs from PerkinElmer.
Each plate contains up to 16 wells of a negative control depending on the dilution procedure (platewise or serial) (DMSO instead of test compound; with KRAS mutant::SOS1 GOP mix and bead mix; column 23) and 16 wells of a positive control (DMSO instead of test compound; with KRAS mutant::SOS1 GOP mix w/o bead mix; column 24).
As internal control known inhibitors of KRAS mutant::SOS1 interaction can be measured on each compound plate.
IC50 values are calculated and analyzed with Boehringer Ingelheim's MEGALAB C50 application using a 4 parametric logistic model.
Tables of example compounds disclosed herein contain IC50 values determined using the above assays (see Table 43).
A general note: Bead proximity is the source of the signal in Alpha formats.

Another series concerns MKN1 cells. Kind of series: MKN1 CTG proliferation assay (120 h) (gastric cancer, wt amplified). In kind it is cell-based. The following applies: Homo sapiens, MKN-1. As to the method: as §1, with “MKN1” for “AsPC-1”, “(JCRB0252)” for “(ATCC CRL-1682)”, “200” for “500”, “RPMI-1640” for “RPMI”, “(Gibco #A10491)+10%” for “(PAN P04-18047)+10%”
as §2

KRAS (G12C)::SOS1 protein-protein interaction, sequence (P01116 other isoform, or with tags, fused parts or gaps G12C/C51S/C80L/C118S): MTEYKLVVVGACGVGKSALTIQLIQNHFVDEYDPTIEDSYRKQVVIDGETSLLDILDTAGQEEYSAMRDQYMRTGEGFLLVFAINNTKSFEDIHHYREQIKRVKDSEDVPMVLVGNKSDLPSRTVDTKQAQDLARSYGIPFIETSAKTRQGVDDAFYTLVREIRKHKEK

Regarding `CO[C@H]1C[C@H](n2c(=O)n(C)c3c(O[C@@H](C)[C@@H]4CCCN4C)nc(-c4onc5c4CCC[C@@]54CCCc5sc(N)c(C#N)c54)nc32)C1` [I-16], the fraction unbound in series [1] stood at 0.13. Also, the pIC50 with AsPC-1 cells was 5.40; in series [2] it was 8.30; in the series with MKN1 cells, 6.45.

On to `C[C@H](Oc1nc(-c2onc3c2CCC[C@@]32CCCc3sc(N)c(C#N)c32)nc2c1n(C)c(=O)n2[C@H]1CC2CCC1O2)[C@@H]1CCCN1C` (stereo partly drawn) [I-17], for which the fraction unbound in series [1] stood at 0.04. Also, the results for the pIC50 (in the series with AsPC-1 cells; in series [2]; in the series on MKN1 cells) were 5.83, 8.70 and 6.49, respectively.

Regarding `C[C@H](Oc1nc(-c2onc3c2CCC[C@@]32CCCc3sc(N)c(C#N)c32)nc2c1n(C)c(=O)n2[C@@H]1CC2CCC1O2)[C@@H]1CCCN1C` (stereo partly drawn) [I-18], in series [1], the fraction unbound stood at 0.2. Moreover, the values for the pIC50 (in the series with AsPC-1 cells; in series [2]; with MKN1 cells) were 5.36, 8.40 and 6.34, respectively.

For `C[C@H](Oc1nc(-c2onc3c2CCC[C@@]32CCCc3sc(N)c(C#N)c32)nc2c1n(C)c(=O)n2[C@H]1CCC[C@@H]1O)[C@@H]1CCCN1C` [I-19], the fraction unbound in series [1] is 0.05. The values for the pIC50 (with AsPC-1 cells; in series [2]; in the series with MKN1 cells) were 5.52, 8.70 and 5.98, respectively.

On to `C[C@H](Oc1nc(-c2onc3c2CCC[C@@]32CCCc3sc(N)c(C#N)c32)nc2c1n(C)c(=O)n2[C@@H]1CCOC1)[C@@H]1CCCN1C` [I-20], for which the fraction unbound in series [1] came to 0.28. In addition, the pIC50 in the series on AsPC-1 cells was 6.61; in series [2], 9.00; in the series on MKN1 cells, 8.10.

For the compound `CCn1c(=O)n([C@@H]2CCOC2)c2nc(-c3onc4c3CCC[C@@]43CCCc4sc(N)c(C#N)c43)nc(O[C@@H](C)[C@@H]3CCCN3C)c21` [I-21], the fraction unbound in series [1] was 0.16. Also, the pIC50 with AsPC-1 cells is 6.49; in series [2], 9.00; in the series on MKN1 cells, 7.66.

Take `C[C@H](Oc1nc(-c2onc3c2CCC[C@@]32CCCc3sc(N)c(C#N)c32)nc2c1n(C)c(=O)n2[C@@H]1CCOC1)[C@@H]1C[C@@H](F)CN1C` [I-22]: the fraction unbound in series [1] is 0.19. In addition, the pIC50 was 5.96 in the series with AsPC-1 cells, 9.00 in series [2] and 7.85 with MKN1 cells.

In the case of `CO[C@H]1CCN(C)[C@@H]1[C@H](C)Oc1nc(-c2onc3c2CCC[C@@]32CCCc3sc(N)c(C#N)c32)nc2c1n(C)c(=O)n2[C@@H]1CCOC1` [I-23], the fraction unbound in series [1] came to 0.22. Moreover, the pIC50 is 6.27 in the series with AsPC-1 cells, 9.00 in series [2] and 8.22 with MKN1 cells.

For `C[C@H](Oc1nc(-c2onc3c2CCC[C@@]32CCCc3sc(N)c(C#N)c32)nc2c1n(C)c(=O)n2C1COC1)[C@@H]1CCCN1C` [I-24], the fraction unbound in series [1] was determined as 0.18. In addition, the pIC50 with AsPC-1 cells is 5.56; in series [2], 8.70; with MKN1 cells, 6.45.

`C[C@H](Oc1nc(-c2onc3c2CCC[C@@]32CCCc3sc(N)c(C#N)c32)nc2c1n(C)c(=O)n2[C@@H]1CCOC1)C12CCCN1CCC2` [I-25]: in series [1], the fraction unbound is 0.26. In addition, the pIC50 is 5.89 in the series with AsPC-1 cells, 8.70 in series [2] and 7.32 with MKN1 cells.

Regarding `C[C@H](Oc1nc(-c2onc3c2CCC[C@@]32CCCc3sc(N)c(C#N)c32)nc2c1n(C)c(=O)n2[C@@H]1CCOC1)[C@@H]1CC[C@H](C)N1C` [I-26], in series [1], the fraction unbound is 0.17. Besides, the pIC50 in the series with AsPC-1 cells is 6.07; in series [2], 8.70; in the series on MKN1 cells, 7.62.

Turning to `C[C@H](Oc1nc(-c2onc3c2CCC[C@@]32CCCc3sc(N)c(C#N)c32)nc2c1n(C)c(=O)n2[C@@H]1CCOC1)[C@@H]1C[C@H](F)CN1C` [I-27], the fraction unbound in series [1] amounted to 0.15. The figures for the pIC50 (in the series on AsPC-1 cells; in series [2]; in the series with MKN1 cells) were 5.64, 8.70 and 6.90, respectively.

On to `C[C@H](Oc1nc(-c2onc3c2CCC[C@@]32CCCc3sc(N)c(C#N)c32)nc2c1n(C)c(=O)n2[C@@H]1CCOC1)[C@@H]1C[C@@H]2C[C@@H]2N1C` [I-28], for which the fraction unbound in series [1] was 0.05. In addition, the results for the pIC50 (in the series with AsPC-1 cells; in series [2]; in the series with MKN1 cells) were 5.76, 8.70 and 6.87, respectively.

Take `C[C@H](Oc1nc(-c2onc3c2CCC[C@@]32CCCc3sc(N)c(C#N)c32)nc2c1n(C)c(=O)n2[C@@]12COC[C@@H]1C2)[C@@H]1CCCN1C` [I-29]: in series [1], the fraction unbound worked out at 0.39. For the same compound, the pIC50 with AsPC-1 cells is 6.49; in series [2], 9.00; in the series with MKN1 cells, 8.30.

For the compound `CCn1c(=O)n([C@@H]2CCCOC2)c2nc(-c3onc4c3CCC[C@@]43CCCc4sc(N)c(C#N)c43)nc(O[C@@H](C)[C@@H]3CCCN3C)c21` [I-30], in series [1], the fraction unbound came to 0.08. The figures for the pIC50 (in the series with AsPC-1 cells; in series [2]; with MKN1 cells) were 6.01, 8.70 and 7.41, respectively.

With `CO[C@H]1C[C@@H](n2c(=O)n(C)c3c(O[C@@H](C)[C@@H]4CCCN4C)nc(-c4onc5c4CCC[C@@]54CCCc5sc(N)c(C#N)c54)nc32)C1` [I-31], in series [1], the fraction unbound worked out at 0.09. For the same compound, the pIC50 is 5.97 in the series on AsPC-1 cells, 8.70 in series [2] and 6.01 in the series with MKN1 cells.

Regarding `CC(C)n1c(=O)n([C@@H]2CCOC2)c2nc(-c3onc4c3CCC[C@@]43CCCc4sc(N)c(C#N)c43)nc(O[C@@H](C)[C@@H]3CCCN3C)c21` [I-32], the fraction unbound in series [1] turned out to be 0.07. In addition, the pIC50 with AsPC-1 cells was 5.82; in series [2] it was 8.70; in the series with MKN1 cells, 6.37.

As to `CCn1c(=O)n([C@@H]2CCCOC2)c2nc(-c3onc4c3CCC[C@@]43CCCc4sc(N)c(C#N)c43)nc(OC[C@@]34CCCN3C[C@H](F)C4)c21` [I-33], the fraction unbound in series [1] worked out at 0.02. The pIC50 is 5.05 in the series with AsPC-1 cells, 7.66 in series [2] and 5.38 in the series on MKN1 cells.

In general, pIC50 refers to the IC50 on a negative log10 scale, so that one unit is a factor of ten. Low values mean a high IC50, high ones a low IC50.
